Results taken from patent publication US11542273B2, “Amide compound having bet proteolysis-inducing action and medicinal application thereof” (MITSUBISHI TANABE PHARMA CORPORATION, priority 2018, dated 2023).

Columns and labels:
[1] = tested on: human prostate cancer LNCaP cells; test: Cytotoxic action on cancer cells (WST-8, 96 hr); assay type: cell-based; details: Homo sapiens, LNCaP, 96 h, read-out: LNCaP cytotoxic activity: IC50
In short: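 Cells in 10% FBS/RPMI1640 were seeded, cultured overnight at 37 °C with 5% CO2, then exposed to compound for 96 hr. Viable cells were measured with WST-8 against compound-free controls. IC50 was interpolated linearly between the two concentrations bracketing 50% survival.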

BRD4 protein = BRD4 protein (Homo sapiens (Human), UniProt O60885); test: BRD4 protein degradation inducing action in cancer cells (immunofluorescence, Operetta); assay type: cell-based; details: LNCaP cells, 6 hr treatment, fluorescence intensity
In short: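 LNCaP prostate cancer cells in 10% FBS/RPMI1640 were exposed to compound for 6 hr at 37° C, then fixed, permeabilized and immunostained for BRD4 with Alexa Fluor 488 or 546 secondary antibodies plus Hoechst nuclear stain. Fluorescence was read by high-content imaging; DC50 is the concentration giving 50% of untreated signal, interpolated linearly between bracketing points.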

SMILES	DC50 (BRD4 protein) [nM]	IC50 [1] [nM]
Cc1ncsc1-c1ccc([C@H](C)NC(=O)[C@@H]2C[C@@H](O)CN2C(=O)[C@@H](NC(=O)COc2ccc(-c3ccc(C4=N[C@@H](C)c5nnc(C)n5-c5sc(C)c(C)c54)cc3)cc2)C(C)(C)C)cc1 [Example 33, (2S,4R)-1-{(2S)-3,3-dimethyl-2-[2-({4′-[(6S)-2,3,6,9-tetramethyl-6H-thieno[3,2-f][1,2,4]triazolo[4,3-a] [1,4]diazepin-4-yl][1,1′-biphenyl]-4-yl}oxy)acetamido]butanoyl}-4-hydroxy-N-{(1S)-1-[4-(4-methyl-1,3-thiazol-5-yl)phenyl]ethyl}pyrrolidine-2-carboxamide]	0.38	0.26
COC(=O)C[C@@H]1N=C(c2ccc(-c3cc(C(=O)N[C@H](C(=O)N4C[C@H](O)C[C@H]4C(=O)N[C@@H](C)c4ccc(-c5scnc5C)cc4)C(C)(C)C)ccc3F)cc2)c2c(sc(C)c2C)-n2c(C)nnc21 [Example 106, methyl {(6S)-4-[2′-fluoro-5′-({(2S)-1-[(2S,4R)-4-hydroxy-2-({(1S)-1-[4-(4-methyl-1,3-thiazol-5-yl)phenyl]ethyl}carbamoyl)pyrrolidin-1-yl]-3,3-dimethyl-1-oxobutan-2-yl}carbamoyl)[1,1′-biphenyl]-4-yl]-2,3,9-trimethyl-6H-thieno[3,2-f][1,2,4]triazolo[4,3-a][1,4]diazepin-6-yl}acetate]	0.6	0.58
COC(=O)C[C@@H]1N=C(c2ccc(-c3ccc(O[C@H]4C[C@H](C(=O)N[C@H](C(=O)N5C[C@H](O)C[C@H]5C(=O)N[C@@H](C)c5ccc(-c6scnc6C)cc5)C(C)(C)C)C4)nc3)cc2)c2c(sc(C)c2C)-n2c(C)nnc21 [Example 165, methyl {(6S)-4-[4-(6-{[trans-3-({(2S)-1-[(2S,4R)-4-hydroxy-2-({(1S)-1-[4-(4-methyl-1,3-thiazol-5-yl)phenyl]ethyl}carbamoyl)pyrrolidin-1-yl]-3,3-dimethyl-1-oxobutan-2-yl}carbamoyl)cyclobutyl]oxy}pyridin-3-yl)phenyl]-2,3,9-trimethyl-6H-thieno[3,2-f][1,2,4]triazolo[4,3-a] [1,4]diazepin-6-yl}acetate]	0.041	0.26
COC(=O)C[C@@H]1N=C(c2ccc(N3CCN(c4cccc(C(=O)N[C@H](C(=O)N5C[C@H](O)C[C@H]5C(=O)N[C@@H](C)c5ccc(-c6scnc6C)cc5)C(C)(C)C)n4)CC3)cc2)c2c(sc(C)c2C)-n2c(C)nnc21 [Example 177, methyl [(6S)-4-(4-{4-[6-({(2S)-1-[(2S,4R)-4-hydroxy-2-({(1S)-1-[4-(4-methyl-1,3-thiazol-5-yl)phenyl]ethyl}carbamoyl)pyrrolidin-1-yl]-3,3-dimethyl-1-oxobutan-2-yl}carbamoyl)pyridin-2-yl]piperazin-1-yl}phenyl)-2,3,9-trimethyl-6H-thieno[3,2-f][1,2,4]triazolo[4,3-a] [1,4]diazepin-6-yl]acetate]	0.23	0.36
COC(=O)C[C@@H]1N=C(c2ccc(-c3ccc(SCC(=O)N[C@H](C(=O)N4C[C@H](O)C[C@H]4C(=O)N[C@@H](C)c4ccc(-c5scnc5C)cc4)C(C)(C)C)cc3)cc2)c2c(sc(C)c2C)-n2c(C)nnc21 [Example 53, methyl [(6S)-4-(4′-{[2-({(2S)-1-[(2S,4R)-4-hydroxy-2-({(1S)-1-[4-(4-methyl-1,3-thiazol-5-yl)phenyl]ethyl}carbamoyl)pyrrolidin-1-yl]-3,3-dimethyl-1-oxobutan-2-yl}amino)-2-oxoethyl]sulfanyl}[1,1′-biphenyl]-4-yl)-2,3,9-trimethyl-6H-thieno[3,2-f][1,2,4]triazolo[4,3-a] [1,4]diazepin-6-yl]acetate]	0.091	0.2
COC(=O)C[C@@H]1N=C(c2ccc(-c3cccc(C(=O)N[C@H](C(=O)N4C[C@H](O)C[C@H]4C(=O)N[C@@H](C)c4ccc(-c5scnc5C)cc4)C(C)(C)C)n3)cc2)c2c(sc(C)c2C)-n2c(C)nnc21 [Example 113, methyl [(6S)-4-{4-[6-({(2S)-1-[(2S,4R)-4-hydroxy-2-({(1S)-1-[4-(4-methyl-1,3-thiazol-5-yl)phenyl]ethyl}carbamoyl)pyrrolidin-1-yl]-3,3-dimethyl-1-oxobutan-2-yl}carbamoyl)pyridin-2-yl]phenyl}-2,3,9-trimethyl-6H-thieno[3,2-f][1,2,4]triazolo[4,3-a][1,4]diazepin-6-yl]acetate]	0.075	0.096
COC(=O)C[C@@H]1N=C(c2ccc(-c3cccc4c3CN(CC(=O)N[C@H](C(=O)N3C[C@H](O)C[C@H]3C(=O)N[C@@H](C)c3ccc(-c5scnc5C)cc3)C(C)(C)C)CC4)cc2)c2c(sc(C)c2C)-n2c(C)nnc21 [Example 147, methyl [(6S)-4-(4-{2-[2-({(2S)-1-[(2S,4R)-4-hydroxy-2-({(1S)-1-[4-(4-methyl-1,3-thiazol-5-yl)phenyl]ethyl}carbamoyl)pyrrolidin-1-yl]-3,3-dimethyl-1-oxobutan-2-yl}amino)-2-oxoethyl]-1,2,3,4-tetrahydroisoquinolin-8-yl}phenyl)-2,3,9-trimethyl-6H-thieno[3,2-f] [1,2,4]triazolo[4,3-a][1,4]diazepin-6-yl]acetate]	0.28	0.34
COC(=O)C[C@@H]1N=C(c2ccc(Nc3cccc(OCC(=O)N[C@H](C(=O)N4C[C@H](O)C[C@H]4C(=O)N[C@@H](C)c4ccc(-c5scnc5C)cc4)C(C)(C)C)c3)cc2)c2c(sc(C)c2C)-n2c(C)nnc21 [Example 47, methyl [(6S)-4-(4-{3-[2-({(2S)-1-[(2S,4R)-4-hydroxy-2-({(1S)-1-[4-(4-methyl-1,3-thiazol-5-yl)phenyl]ethyl}carbamoyl)pyrrolidin-1-yl]-3,3-dimethyl-1-oxobutan-2-yl}amino)-2-oxoethoxy]anilino}phenyl)-2,3,9-trimethyl-6H-thieno[3,2-f][1,2,4]triazolo[4,3-a][1,4]diazepin-6-yl]acetate]	0.45	0.42

Second part, led by results:

DC50 (BRD4 protein) [nM]	SMILES	IC50 [1] [nM]
0.77	Cc1ncsc1-c1ccc([C@H](C)NC(=O)[C@@H]2C[C@@H](O)CN2C(=O)[C@@H](NC(=O)CCCCc2ccc(C3=N[C@@H](C)c4nnc(C)n4-c4sc(C)c(C)c43)cc2)C(C)(C)C)cc1 [Example 192, (2S,4R)-1-{(2S)-3,3-dimethyl-2-[(5-{4-[(6S)-2,3,6,9-tetramethyl-6H-thieno[3,2-f][1,2,4]triazolo[4,3-a] [1,4]diazepin-4-yl]phenyl}pentanoyl)amino]butanoyl}-4-hydroxy-N-{(1S)-1-[4-(4-methyl-1,3-thiazol-5-yl)phenyl]ethyl}pyrrolidine-2-carboxamide]	0.46
0.26	COC(=O)C[C@@H]1N=C(c2ccc(-c3ccc(CCC(=O)N[C@H](C(=O)N4C[C@H](O)C[C@H]4C(=O)N[C@@H](C)c4ccc(-c5scnc5C)cc4)C(C)(C)C)s3)cc2)c2c(sc(C)c2C)-n2c(C)nnc21 [Example 188, methyl [(6S)-4-(4-{5-[3-({(2S)-1-[(2S,4R)-4-hydroxy-2-({(1S)-1-[4-(4-methyl-1,3-thiazol-5-yl)phenyl]ethyl}carbamoyl)pyrrolidin-1-yl]-3,3-dimethyl-1-oxobutan-2-yl}amino)-3-oxopropyl]thiophen-2-yl}phenyl)-2,3,9-trimethyl-6H-thieno[3,2-f][1,2,4]triazolo[4,3-a][1,4]diazepin-6-yl]acetate]	0.042
0.62	Cc1ncsc1-c1ccc([C@H](C)NC(=O)[C@@H]2C[C@@H](O)CN2C(=O)[C@@H](NC(=O)CCCCCc2ccc(C3=N[C@@H](C)c4nnc(C)n4-c4sc(C)c(C)c43)cc2)C(C)(C)C)cc1 [Example 193, (2S,4R)-1-{(2S)-3,3-dimethyl-2-[(6-{4-[(6S)-2,3,6,9-tetramethyl-6H-thieno[3,2-f][1,2,4]triazolo[4,3-a] [1,4]diazepin-4-yl]phenyl}hexanoyl)amino]butanoyl}-4-hydroxy-N-{(1S)-1-[4-(4-methyl-1,3-thiazol-5-yl)phenyl]ethyl}pyrrolidine-2-carboxamide]	0.3
0.62	Cc1ncsc1-c1ccc([C@H](C)NC(=O)[C@@H]2C[C@@H](O)CN2C(=O)[C@@H](NC(=O)c2ccc(-c3ccc(C4=N[C@@H](CC(=O)N(C)C)c5nnc(C)n5-c5sc(C)c(C)c54)cc3)c(F)c2)C(C)(C)C)cc1 [Example 207, (2S,4R)-1-{(2S)-2-[(4′-{(6S)-6-[2-(dimethylamino)-2-oxoethyl]-2,3,9-trimethyl-6H-thieno [3,2-f][1,2,4]triazolo [4,3-a] [1,4]diazepin-4-yl}-2-fluoro [1,1′-biphenyl]-4-carbonyl)amino]-3,3-dimethylbutanoyl}-4-hydroxy-N-{(1S)-1-[4-(4-methyl-1,3-thiazol-5-yl)phenyl]ethyl}pyrrolidine-2-carboxamide]	0.43
0.058	Cc1ncsc1-c1ccc([C@H](C)NC(=O)[C@@H]2C[C@@H](O)CN2C(=O)[C@@H](NC(=O)C#Cc2ccc(C3=N[C@@H](C)c4nnc(C)n4-c4sc(C)c(C)c43)cc2)C(C)(C)C)cc1 [Example 198, (2S,4R)-1-{(2S)-3,3-dimethyl-2-[(3-{4-[(6S)-2,3,6,9-tetramethyl-6H-thieno[3,2-f][1,2,4]triazolo[4,3-a][1,4]diazepin-4-yl]phenyl}prop-2-ynoyl)amino]butanoyl}-4-hydroxy-N-{(1S)-1-[4-(4-methyl-1,3-thiazol-5-yl)phenyl]ethyl}pyrrolidine-2-carboxamide]	0.061
